Measurements from patent publication US20110195924A1, “Methods of Inhibiting the Interaction Between S100P and the Receptor for Advanced Glycation End-Products” (priority 2008, published 2011).
Several values for one entry are separate records, joined by “and”; a condition that tells them apart may be missing. Identical values can stand only once.

Key:
Panc-1 tumors = assay: Panc-1 orthotopic tumor growth and metastasis in scid mice; type: in vivo
Experimental: FIGS. 6A-6F show the effect of cromolyn on Panc-1 tumor growth and metastasis in vivo. Panc-1 cells stably expressing the firefly luciferase gene were injected orthotopically into 4-week-old male CB 17 scid mice. […] Mice were divided into four groups of five mice each with an equivalent mean tumor size between groups. […] One group was treated with water (control), one group received gemcitabine bi-weekly (125 mg per kg body weight bi-weekly by intraperitoneal injection), one group was administered cromolyn daily (5 mg per kg body weight daily by intraperitoneal injection), and the final group was given the combination of cromolyn and gemcitabine. All groups were treated for six weeks. Bioluminescent imaging was done weekly to assess tumor growth. […] Means and 95% confidence intervals from two independent experiments are shown (n=20). Two-tailed two-sample (unpaired) Student's t-tests were used to determine P values. The anti-tumorigenic capability of the drug cromolyn was assessed in 4-week-old male CB 17 scid mice (n=20) carrying orthopic tumors of BxPC-3, MPanc96, and Panc-1 cells stably expressing a Lenti-luc reporter. All mouse experiments were reviewed and approved by the Institutional Animal Care and Use Committee of UT MD Anderson Cancer Center. All mice were maintained in a sterile environment. Cages, bedding, food, and water were all autoclaved. All mice were maintained on a daily 12-hour light/12-hour dark cycle, according to the institutional animal welfare guidelines. BxPC-3, MPanc96, and Pane-1 cells carrying the Lenti-luc reporter gene were grown to 80% confluence, harvested by incubation with trypsin-EDTA, washed twice in PBS, and resuspended to a final concentration of 4.0×10^6 cells/mL. Each mouse (n=20 mice per cell line) was injected (into the pancreas) with cell suspensions (50 μL). Bioluminescent imaging to determine tumor volume was performed 1 week after injection because the tumors became established within this amount of time. This initial tumor volume was used to divide the mice into four groups of five mice each, such that the mean tumor size was equal between groups (FIGS. 4A, 5A, and 6A). To allow enough time to observe differences among treatment groups, the mice were followed for the next 5 weeks. One group of mice was then treated biweekly with a sub-maximal concentration of gemcitabine (125 mg per kg body weight by i.p. injection). A second group was treated with a daily injection of cromolyn (5 mg per kg body weight by i.p. injection). A third group was treated with both bi-weekly gemcitabine and daily cromolyn. The control group was treated daily with vehicle. Treatments were continued for 5 weeks, and the effects on the tumor burden and metastasis were analyzed by weekly bioluminescence imaging (FIGS. 4B, 5B, and 6B). At the end of the experiment the mice were anesthetized with 1.5% isofluorane/air mixture and killed by cervical dislocation. Bioluminescence imaging was conducted using a cryogenically cooled IVIS 100 imaging system coupled to a data acquisition computer running Living Image software (Xenogen Corp., Alameda, Calif.). Before imaging, mice were placed in an acrylic chamber, anesthetized with 1.5% isofluorane/air mixture, and injected i.p. with 15 mg/mL of luciferin potassium salt in PBS at a dose of 150 mg per kg body weight. A digital grey scale image of each mouse was acquired, followed by acquisition and overlay of a pseudocolor image representing the spatial distribution of detected photons emerging from active luciferase within the mouse. Tumor volume was quantified as the sum of all detected photons within the region of the tumor per second. At the end of experiment, the mice were killed, and tumors were surgically removed and weighed. After the primary tumors were removed, cancer cell dissemination and metastasis was visualized using IVIS imaging, and metastatic colonies were counted. […]

BxPC-3 cells = assay: BxPC-3 apoptosis by flow cytometry (PI staining); type: cell-based; details: 48 hours
Experimental: BxPC-3 cells were treated with cromolyn (10 μM) with (+) or without (−) gemcitabine (10 μM), and apoptosis was analyzed after 48 hours by flow cytometry. *, P<0.001 versus control, #, P=0.001 versus gemcitabine. Means and 95% confidence intervals of three independent experiments performed in triplicate are shown. Two-tailed two-sample (unpaired) Student's t-tests were used to determine P values. Standard propidium iodide (PI) staining by the hypotonic lysis method was used for apoptosis studies. Apoptosis was induced in 1.0×10^6 BxPC-3 cells by treatment with gemcitabine (10 μM), with or without cromolyn. After 48 hours the cells were detached from culture dishes by incubation in 0.05% trypsin-EDTA, washed once with cold PBS, and then incubated for 30 minutes in 500 μL of hypotonic solution (0.1% sodium citrate, 0.1% Triton X-100, 100 μg/mL RNAse, and 50 μg/mL PI), and analyzed by flow cytometry (EPICS XL, Beckman Coulter Inc, Fullerton, Calif.). Cells undergoing apoptosis that had lost part of their DNA were identified as the population of cells with sub-G1 DNA content. These assays were performed three times.

| SMILES | liver or lung metastasis (Panc-1 tumors; Panc-1 model) | tumor development (Panc-1 tumors; Panc-1 model (no S100P), cromolyn 5 mg/kg daily i.p.) | effect on body weight (in words) (Panc-1 tumors; Panc-1 model, up to 6 weeks) | cell apoptosis, cromolyn alone (BxPC-3 cells; cromolyn 10 μM) | body weight, difference versus control (Panc-1 tumors; Panc-1 model) [g] | body weight at the end of the experiment, mean (Panc-1 tumors; Panc-1 model, control 32.0 g) [g] | apoptotic cells, difference versus control (BxPC-3 cells; gemcitabine 10 μM) [%] | apoptotic cells, mean (BxPC-3 cells; gemcitabine 10 μM, control 3.7%) |
| --- | --- | --- | --- | --- | --- | --- | --- | --- |
| O=C(O)c1cc(=O)c2c(OCC(O)COc3cccc4oc(C(=O)O)cc(=O)c34)cccc2o1 [cromolyn, disodium 1,3-bis[(2′-carboxylatochromon-5′-yl)oxy]-2-hydroxypropane] | neither cromolyn nor gemcitabine nor the combination reduced | did not reduce | no effect | no statistically significant effect |  |  |  |  |
| Nc1ccn([C@@H]2O[C@H](CO)[C@@H](O)C2(F)F)c(=O)n1 [gemcitabine] | neither cromolyn nor gemcitabine nor the combination reduced |  |  |  | 4.8 | 27.2 | 27.3 | 31.0% and 30.8% |
